Our source for the IC50 values is PubChem BioAssay AID1361 (SRMLSC, 2008).

pIC50: −log10 of the molar value. Active and inactive are the calls of the source. The rule behind the calls is not given here.

A short description of the assay: mitochondrial fusion inhibitors, confirmation, cell-based, chemical genetic, wild-type and mutant (AID 1361). The following applies: Cell-based mitochondrial fusion phenotype, imaging.
Setting [1] is: mutant cells, measured here: mutant cell line IC50.

As usually defined, the pIC50 is −log10 of the IC50, conventionally taken in molar units. As to `COc1ccc(NC(=O)c2csc(Cc3ccc(Cl)cc3)n2)cc1`, the pIC50 runs as follows: (WT cells) 4.80; under setting [1], 4.61.
The term IC50 denotes the concentration that inhibits the measured activity by half. As to `COc1cc(SC)ccc1C(=O)NCC1CCCO1` (stereo not drawn), the IC50 (WT cells) is > 25 µM (inactive). Under setting [1], this molecule gave a pIC50 of under 4.60.
Consider `CCCCCCOC1(c2ccccc2)OC(=O)c2ccccc21` (stereo not drawn), for which the pIC50 (WT cells) is 4.77 and the pIC50 under setting [1] is 4.67.
In the case of `Cc1sc(NC(=O)c2ccccc2)c(C(c2ccc(Cl)cc2)N2CCN(CCO)CC2)c1C` (stereo not drawn), the pIC50 runs as follows: (WT cells) 4.87; under setting [1], under 4.60.
`Fc1ccccc1Nc1nc2c(s1)CCc1ccccc1-2`: the negative-log IC50 (pIC50) is, setting by setting: (WT cells) 4.75; under setting [1], 4.72.
As to `COc1ccc(CNC(=O)C2CC(=O)N(c3ccc(OCC(=O)N4C(C)CCCC4C)cc3)C2)cc1` (stereo not drawn), under “WT cells”, the IC50 is > 25 µM (inactive). The pIC50 under setting [1] was under 4.60.
Turning to `CCOC1(OCC)C(c2ccc(Cl)cc2)C(C#N)(C#N)C1(OCC)OCC` (stereo not drawn), the pIC50 by setting is: (WT cells) 4.94; under setting [1], under 4.60.
On to `Cc1nc(-c2ccccc2)sc1-c1nc(-c2ccncc2)ncc1S(=O)(=O)c1ccccc1`, for which the pIC50 (WT cells) is 4.98 and the pIC50 under setting [1] was under 4.60.
Take `CCn1ccnc1CN1CCc2c([nH]c3ccccc23)C1CC(C)C` (stereo not drawn): the IC50 (WT cells) was > 25 µM (inactive). The molecule also had a pIC50 under setting [1] of under 4.60.
Turning to `Cc1ccc(-c2cc(-c3ccccc3)c(C#N)c(N)n2)o1`, under “WT cells”, the IC50 was > 25 µM (inactive). Also, the pIC50 under setting [1] is under 4.60.
The corresponding values for `CCOC(=O)c1ccc2c(c1)n(CC)c(/C=C/N(C)c1ccccc1)[n+]2CC` are > 25 µM (inactive) and under 4.60.
For `O=[N+]([O-])c1cccnc1N1CCC(c2cc(-c3ccc(Cl)cc3Cl)n[nH]2)CC1`, the pIC50 (WT cells) is 5.18 and the pIC50 under setting [1] was under 4.60.
With `S=C1NC(C23CC4CC(CC(C4)C2)C3)=CC(c2ccc3c(c2)OCO3)N1` (stereo not drawn), the pIC50 was 5.34 (WT cells) and under 4.60 under setting [1].
With `CCOc1ccccc1N1CCN(C(=O)c2ccc3[nH]c4c(c3c2)CCCC4)CC1`, the pIC50 is, setting by setting: (WT cells) 4.77; under setting [1], under 4.60.
`Cc1cccc(NC(=S)NNC(=O)COc2ccc(Cl)cc2Cl)c1`: the pIC50 was 4.96 (WT cells) and 4.68 under setting [1].
On the same counts, the results for `COc1ccc2ccc3c(c2c1)N=CC1(O3)N(C)c2ccccc2C1(C)C` (stereo not drawn) are 5.22 and under 4.60.
With `O=C(c1ccc2c(c1)OCO2)N(Cc1cccs1)C1(C(=O)NC2CCCCC2)CCCCC1`, the IC50 (WT cells) was > 25 µM (inactive). For the same molecule, the pIC50 under setting [1] was under 4.60.
Turning to `Cc1cc(NC(=O)C2CCCCC2)nc2c1c(=O)oc1ccccc12`, the pIC50 (WT cells) was 4.71 and the negative logarithm of the IC50 (pIC50) under setting [1] was 4.62.
On to `CCOC(=O)C1CCc2nc3ccccc3c(=O)n21` (stereo not drawn), for which, under “WT cells”, the IC50 is > 25 µM (inactive). Under setting [1], this molecule had a negative-log IC50 (pIC50) of under 4.60.
For `O=C(COc1ccccc1-c1ccccc1)NCc1cccc(Cl)c1`, the pIC50 runs as follows: (WT cells) 4.82; under setting [1], under 4.60.
For the molecule `CCc1ccccc1NC(=O)/C(=C/c1ccccc1)c1ccccc1`, the pIC50 by setting is: (WT cells) 4.76; under setting [1], under 4.60.
In the case of `CCN=c1scc(-c2ccco2)n1/N=C/c1ccc(OC)c(O)c1`, the IC50 (WT cells) was > 25 µM (inactive). This molecule also gave a pIC50 under setting [1] of under 4.60.
For the molecule `COc1ccc(NC(=S)N(CCc2c(C)[nH]c3ccc(C)cc23)Cc2ccco2)cc1`, the pIC50 by setting is: (WT cells) 5.06; under setting [1], under 4.60.
As for `COc1ccc(-c2nc3n(c(=O)c2C#N)CCCS3)cc1`, under “WT cells”, the IC50 was > 25 µM (inactive). In addition, the pIC50 under setting [1] is under 4.60.
For the molecule `c1n[nH]c(NCc2ccc3c(c2)OCO3)n1`, the IC50 (WT cells) was > 25 µM (inactive). The same molecule showed a pIC50 under setting [1] of under 4.60.
With `CCOc1ccc(Oc2c(/C=N/NC(=O)COc3ccccc3OC)c(C)nn2-c2ccccc2)cc1`, the pIC50 is 4.83 (WT cells) and under 4.60 under setting [1].
For `CCc1cc(-c2n[nH]c(=S)n2-c2ccccc2C)cs1`, the IC50 (WT cells) was > 25 µM (inactive). Further, the pIC50 under setting [1] is under 4.60.
Take `c1ccc(CNc2nc(-c3cccs3)nc3ccccc23)cc1`: the IC50 (WT cells) is > 25 µM (inactive). The molecule also showed a pIC50 under setting [1] of under 4.60.
In the case of `COc1ccc(NC(=S)NC(NC(=O)c2ccc(Cl)cc2Cl)C(Cl)(Cl)Cl)c([N+](=O)[O-])c1` (stereo not drawn), the pIC50 was 4.94 (WT cells) and under 4.60 under setting [1].
For `CCCC1(CCC)NC(=O)N(CC(=O)Nc2cccc(OC)c2)C1=O`, the IC50 (WT cells) was > 25 µM (inactive). In addition, the pIC50 under setting [1] is under 4.60.
Regarding `Cc1nc(NC2=NCN(C3CCCCC3C)CN2)nc2ccccc12` (stereo not drawn), under “WT cells”, the IC50 was > 25 µM (inactive). Under setting [1], the pIC50 was under 4.60.
For `CCOc1ccc(NC(=S)NN(C)C(=S)Nc2ccc(OCC)cc2)cc1`, the IC50 (WT cells) was > 25 µM (inactive). Under setting [1], the pIC50 is under 4.60.
With `CCN(CC)S(=O)(=O)c1cccc(C(=O)Nc2sc3c(c2C(N)=O)CCCC3)c1`, the IC50 (WT cells) was > 25 µM (inactive). Moreover, the pIC50 under setting [1] was under 4.60.
On the same counts, the results for `CCn1c2ccccc2c2cc(/C=N/NC(=O)c3cccc(C)c3)ccc21` are > 25 µM (inactive) and under 4.60.
Take `COCCNC(=S)N(CCc1c(C)[nH]c2ccc(Cl)cc12)Cc1cccs1`: the pIC50 is 5.06 (WT cells) and under 4.60 under setting [1].
For the molecule `NC(=O)COC(=O)c1ccc(Cl)c(S(=O)(=O)N(Cc2ccccc2)c2ccc(Cl)cc2)c1`, the pIC50 reads like this: (WT cells) 4.74; under setting [1], under 4.60.
Turning to `N#CC1=C(N)C2=CCCC[C@H]2[C@H](c2ccc(Br)cc2)C1(C#N)C#N`, the negative-log IC50 (pIC50) by setting is: (WT cells) 5.35; under setting [1], 5.15.
As to `O=[N+]([O-])c1ccccc1/C=N/n1c(C2CCCCC2)n[nH]c1=S`, for the setting “WT cells”, the IC50 was > 25 µM (inactive). Under setting [1], the pIC50 is under 4.60.
In the case of `O=C(O)C1CCCCC1C(=O)Nc1ccc(F)cc1F` (stereo not drawn), the IC50 (WT cells) is > 25 µM (inactive). Under setting [1], this molecule gave a pIC50 of under 4.60.
Take `Cc1ccc(N=Cc2c(O)n(-c3ccc4c(c3)OCO4)c(=O)c3ccccc23)cc1`: the IC50 (WT cells) was > 25 µM (inactive). This molecule also had a pIC50 under setting [1] of under 4.60.
Consider `CC(c1ccccc1)N(CC(=O)NC1CCCCC1)S(=O)(=O)c1cccc(C(F)(F)F)c1` (stereo not drawn), for which the pIC50 reads like this: (WT cells) 4.91; under setting [1], under 4.60.
The corresponding values for `Oc1ccccc1CN(Cc1ccco1)CC(O)COCc1ccc(Cl)cc1` (stereo not drawn) are 4.72 and under 4.60.
Regarding `Cc1ccc(NC(=O)C2(c3ccccc3)CC2(Cl)Cl)cc1C` (stereo not drawn), the IC50 (WT cells) is > 25 µM (inactive). The pIC50 under setting [1] is under 4.60.
Turning to `CCCCC(=O)NC(c1ccc([N+](=O)[O-])cc1)c1c(O)ccc2ccccc12` (stereo not drawn), the IC50 (WT cells) was > 25 µM (inactive). The molecule also had a pIC50 under setting [1] of under 4.60.
`O=C1/C(=C/c2cccc3ccccc23)CCCc2ccccc21`: the pIC50 (WT cells) is 4.76 and the pIC50 under setting [1] was under 4.60.
On to `CCCC(NC(=S)NCC1CCCO1)C12CC3CC(CC(C3)C1)C2` (stereo not drawn), for which the pIC50 was 5.12 (WT cells) and under 4.60 under setting [1].
`CC1(C)C=Cc2c(c3c(c4c(=O)c(-c5ccc(O)cc5)coc24)OC(C)(C)CC3)O1`: the pIC50 was 4.85 (WT cells) and 4.61 under setting [1].
Turning to `Cc1cc(Oc2cnn(C(C)(C)C)c(=O)c2Cl)cc(C(C)C)c1`, the pIC50 (WT cells) is 4.77 and the pIC50 under setting [1] is under 4.60.
On the same counts, the results for `CCCCCCn1c(N2CCN(c3ccccc3)CC2)nc2c1c(=O)n(C)c(=O)n2C` are 4.70 and under 4.60.
